Test results: patent publication US8207330B2, “Two-photon absorption material and application thereof” (Ricoh Company, Ltd., priority 2008, dated 2012)

Legend:
[1] = Two-photon absorption cross-sectional area, Z scan method, Examples C; assay type: physicochemical; conditions: tetrahydrofuran solution, wavelength 800 nm
Procedure: Compound 1-7 (porphyrin derivative) of the present invention was dissolved in tetrahydrofuran, and the resultant tetrahydrofuran solution was measured for its two-photon absorption cross-sectional area according to the below-described evaluation method therefor.
The following Comparative Compound 1 was dissolved in tetrahydrofuran, and the resultant tetrahydrofuran solution was measured for its two-photon absorption cross-sectional area according to the below-described evaluation method therefor.
The following Comparative Compound 2, having a typical porphyrin structure, was dissolved in tetrahydrofuran, and the resultant tetrahydrofuran solution was measured for its two-photon absorption cross-sectional area in a similar manner.
The following Comparative Compound 3, having a conventional, typical diazaporphyrin structure, was dissolved in tetrahydrofuran, and the resultant tetrahydrofuran solution was measured for its two-photon absorption cross-sectional area.
[drawing 71] [Method for Measuring Two-Photon Absorption Cross-Sectional Area] […]
A quartz cell filled with each sample solution was placed in a light path through which a focused laser beam was passed. […] The sample solution was measured for its transmittance, and the thus-obtained value and the following theoretical equation (I) were used to determine a nonlinear absorption coefficient of the sample. […]

[2] = Two-photon absorption cross-sectional area, Z scan method, Examples A (800 nm); assay type: physicochemical; conditions: tetrahydrofuran solution, femtosecond titanium sapphire laser
Procedure: Each of the above-given compounds Nos. 1, 2, 4, 5, 6, 7, 10, 11, 15, 16, 17, 20, 24, 25, 27 and 28 of the present invention was dissolved in tetrahydrofuran, and the resultant solution was measured for its two-photon absorption cross-sectional area according to the below-described evaluation method therefor.
The following compound (29) was dissolved in tetrahydrofuran, and the resultant solution was measured for its two-photon absorption cross-sectional area according to the below-described evaluation method therefor.
The following compound (30) was dissolved in tetrahydrofuran, and the resultant solution was measured for its two-photon absorption cross-sectional area according to the below-described evaluation method therefor.
[drawing 66] [Method for Measuring Two-Photon Absorption Cross-Sectional Area]
FIG. 8 schematically illustrates a system of the method.
Measuring light source: femtosecond titanium sapphire laser
Repetition frequency: 80 MHz
Measuring method: Z scan method
Wavelength of light source: 800 nm
Inner diameter of cuvette: 10 mm
Light power for measurement: about 500 mW
Collection diameter: 40 μm to 50 μm
A quartz cell filled with each sample solution was placed in a light path through which a focused laser beam was passed. Then, the cell was moved along the light path for Z-scan measurement.
The sample solution was measured for its transmittance, and the thus-obtained value and the following theoretical equation (1) were used to determine a nonlinear absorption coefficient of the sample. T=[ln(1+I0L0β)]/I0L0β (1) where T denotes a transmittance (%), I0 denotes an excited light density [GW/cm^2], L0 denotes a sample cell length [cm], and β denotes a nonlinear absorption coefficient [cm/GW].
The thus-determined nonlinear absorption coefficient and the following equation (2) were used to calculate a two-photon absorption cross-sectional area σ. Note that the unit of σ is GM (1 GM=1×10^−50 cm^4·s·photon^−1). σ=1,000×hvβ/[…] (2)
where h denotes the Planck's constant [J·s], v denotes a frequency of an incident laser beam [s^−1], NA denotes the Avogadoro's number, and C denotes a concentration of a solution [mol/L].

Row | Structure (SMILES) | Two-photon absorption cross-sectional area [1] [GM] | Two-photon absorption cross-sectional area [2] [GM]
1 | COc1ccc(-c2cc(C3=C(c4cc(-c5ccc(OC)cc5)sc4OC)C(F)(F)C(F)(F)C3(F)F)c(OC)s2)cc1 [Comp. Ex. C-1] | 15 | 
2 | CCC1=C(CC)C2=C(Br)c3c(CC)c(CC)c4[n]3[Zn][n]3c(c(CC)c(CC)c3=C(c3ccc5c(c3)C(C)(C)c3cc(C6=C7N=C(C(CC)=C7CC)C(c7ccc([N+](=O)[O-])cc7)=c7c(CC)c(CC)c8[n]7[Zn][n]7c(c(CC)c(CC)c76)C(c6ccc([N+](=O)[O-])cc6)=C6N=C(C(CC)=C6CC)C=8Br)ccc3-5)C3=NC(=C4c4ccc([N+](=O)[O-])cc4)C(CC)=C3CC)=C(c3ccc([N+](=O)[O-])cc3)C1=N2 [compound 28] |  | 590
3 | COc1ccc(-c2cc(C3=C(c4cc(-c5ccc(OC)cc5)sc4OC)C(F)(F)C(F)(F)C3(F)F)c(OC)s2)cc1 [compound 30, reference compound] |  | 15
